Assay results taken from paper PMC10180488, “Novel Derivatives of Eugenol as a New Class of PPARγ Agonists in Treating Inflammation: Design, Synthesis, SAR Analysis and In Vitro Anti-Inflammatory Activity” (Molecules, 2023).
Several values for one entry are separate records, joined by “and”; a condition that tells them apart may be missing. Equal values may be shown once.

Columns and labels:
human PPARγ- LBD = target: T1, human PPARγ- LBD (Homo sapiens, UniProt P37231); assay: Lanthascreen TR-FRET PPARγ competitive binding assay; conditions: for IC50: Lanthascreen TR-FRET competitive binding; for Raw Data / Raw Data - Background: TR-FRET
T1 construct: a mixture of a human PPARγ- LBD labelled with glutathione S-transferase (GST)
T1 sequence (P37231 238-503 limits assumed): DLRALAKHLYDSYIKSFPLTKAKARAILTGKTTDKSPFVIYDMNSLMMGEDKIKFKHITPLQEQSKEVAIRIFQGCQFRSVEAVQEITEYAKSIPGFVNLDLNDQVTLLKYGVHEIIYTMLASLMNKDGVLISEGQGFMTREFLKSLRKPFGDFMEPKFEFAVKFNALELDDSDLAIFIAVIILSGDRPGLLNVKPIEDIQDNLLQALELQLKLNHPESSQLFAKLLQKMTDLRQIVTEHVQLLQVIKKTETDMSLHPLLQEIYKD
Procedure: Using the Lanthasreen TR-FRET assay, the synthesized compounds were first preliminary tested for the PPARγ binding affinity. […] A chemical under test displaces the tracer from PPAR-LBD, which lowers the TR-FRET ratio and decreases the FRET signal Figure 8 [33].
A multimode low-volume proxy plate reader was used to read the plates after one hour of incubation. Then, a mixture of a human PPARγ- LBD labelled with glutathione S-transferase (GST), a fluorescent small pan-PPAR ligand (FluormoneTM Pan-PPAR Green), and terbium-labeled anti-GST antibody was added.

egg albumin = egg albumin (Gallus gallus, UniProt P01012); assay: Albumin denaturation assay; type: biochemical, hen; conditions: mean ± SD (n = 3), read-out: Percentage inhibition of denaturation of albumin
Procedure: Inflammation is accompanied by protein denaturation. Tissue protein denaturation is a well-established cause of Inflammatory illnesses. Inflammatory disorders including rheumatoid arthritis, diabetes, and cancer have been linked to the denaturation of proteins. The ability of a substance to stop proteins from becoming denaturized has a role in the prevention of inflammatory disorders. […] Denaturation of proteins is accomplished by keeping the reaction mixture in a water bath at 70 °C for […].
Minor modifications were made to Mizushima and Kobayashi’s and Sakat et al. methodologies. The reaction mixture containing 0.2 mL of egg albumin (from a fresh hen’s egg) is mixed with 2.8 mL of phosphate-buffered saline (PBS, pH 6.4) and 2 mL of synthesized compounds in varying concentrations. The mixture was then heated at 70 °C for 5 min after being incubated at 37 °C for approximately 15–20 min. After cooling, their absorbance was measured at 660 nm spectrometrically. Three duplicates of the experiment were carried out. […] Percentage inhibition = (OD control − OD sample/OD control) × 100

[1] = tested on: human red blood cells (HRBC); assay: HRBC membrane stabilization method; conditions: for HRBC membrane stabilization (percentage protection against HRBC lysis): mean ± SD (n = 3); for IC50: Homo sapiens, Erythrocyte, read-out: IC50 Values, HRBC membrane stabilization method
Procedure: The principle of this procedure is to stabilize the membrane of human red blood cells by hypotonic membrane lysis. […] Lysosomal enzyme levels typically decrease as the HRBC membrane is stabilized.
The packed cells in this blood solution were separated after centrifugation at 3000 rpm [41]. The packed cells were cleaned using an isosaline solution, and then, isosaline was used to prepare a 10% v/v suspension. This HRBC suspension was employed to estimate its anti-inflammatory properties. Different concentrations of the synthesized compounds and the reference standard were each combined with 1 mL of phosphate buffer (pH 7.4), 2 mL of hyposaline, and 0.5 mL of HRBC solution. A total of 2.0 mL of distilled water was utilized as the control. The assay mixtures were all centrifuged at 3000 rpm after 30 min of incubation at 37°C. The following formula was used to determine the percentage of stabilized HRBC membranes. Percentage protection= 100 − (OD sample/OD control) × 100

Chain of egg albumin (P01012 2-386): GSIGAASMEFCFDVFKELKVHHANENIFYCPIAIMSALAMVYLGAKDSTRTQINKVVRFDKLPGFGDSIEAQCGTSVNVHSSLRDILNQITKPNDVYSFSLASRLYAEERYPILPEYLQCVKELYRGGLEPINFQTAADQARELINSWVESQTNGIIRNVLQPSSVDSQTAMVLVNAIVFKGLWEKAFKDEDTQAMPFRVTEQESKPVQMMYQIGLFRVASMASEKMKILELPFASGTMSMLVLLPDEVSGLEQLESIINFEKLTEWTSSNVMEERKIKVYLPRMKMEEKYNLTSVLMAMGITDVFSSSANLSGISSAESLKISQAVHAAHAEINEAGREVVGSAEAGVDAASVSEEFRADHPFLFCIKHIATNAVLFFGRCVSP

| Compound | IC50 (human PPARγ- LBD) | Raw Data (human PPARγ- LBD; 0.0000512 µM) | Raw Data - Background (human PPARγ- LBD; 0.0000512 µM) | Raw Data (human PPARγ- LBD; 0.000256 µM) | Raw Data - Background (human PPARγ- LBD; 0.000256 µM) | inhibition at 6.25 µM (egg albumin) | inhibition at 12.5 µM (egg albumin) | inhibition at 25 µM (egg albumin) | inhibition at 50 µM (egg albumin) | inhibition at 100 µM (egg albumin) | inhibition at 200 µM (egg albumin) | inhibition at 400 µM (egg albumin) | HRBC membrane stabilization (percentage protection against HRBC lysis) ([1]; 6.25 µM) | HRBC membrane stabilization (percentage protection against HRBC lysis) ([1]; 12.5 µM) | HRBC membrane stabilization (percentage protection against HRBC lysis) ([1]; 25 µM) | HRBC membrane stabilization (percentage protection against HRBC lysis) ([1]; 50 µM) | HRBC membrane stabilization (percentage protection against HRBC lysis) ([1]; 100 µM) | HRBC membrane stabilization (percentage protection against HRBC lysis) ([1]; 200 µM) | HRBC membrane stabilization (percentage protection against HRBC lysis) ([1]; 400 µM) | IC50 [1] | other results |
| --- | --- | --- | --- | --- | --- | --- | --- | --- | --- | --- | --- | --- | --- | --- | --- | --- | --- | --- | --- | --- | --- |
| C=CCc1ccc(OCC(=O)Nc2ccc([N+](=O)[O-])cc2)c(OC)c1 [Compound 1b, 2-(4-Allyl-2-methoxyphenoxy)-N-(4-nitrophenyl)acetamide] | 42.4 µM | 2.014 RLU | 1.767 RLU | 1.849 RLU | 1.755 RLU | 2.06 ± 0.17% | 4.44 ± 0.36% | 8.42 ± 0.24% | 13.4 ± 0.24% | 17.6 ± 0.18% | 21.2 ± 0.3% | 32.2 ± 0.4% | 3.19 ± 0.28% | 9.10 ± 0.28% | 15.55 ± 0.28% | 27.49 ± 0.36% | 36.16 ± 0.48% | 45.07 ± 0.28% | 58.36 ± 0.28% | 83.2 µM | Raw Data (human PPARγ- LBD; 0.00128 µM): 1.865 RLU; Raw Data - Background (human PPARγ- LBD; 0.00128 µM): 1.732 RLU; Raw Data (human PPARγ- LBD; 0.0064 µM): 1.857 RLU; Raw Data - Background (human PPARγ- LBD; 0.0064 µM): 1.671 RLU; Raw Data (human PPARγ- LBD; 0.032 µM): 1.859 RLU; Raw Data - Background (human PPARγ- LBD; 0.032 µM): 1.568 RLU; Raw Data (human PPARγ- LBD; 0.16 µM): 1.896 RLU; Raw Data - Background (human PPARγ- LBD; 0.16 µM): 1.724 RLU; Raw Data (human PPARγ- LBD; 0.8 µM): 2.012 RLU; Raw Data - Background (human PPARγ- LBD; 0.8 µM): 1.756 RLU; Raw Data (human PPARγ- LBD; 4 µM): 1.779 RLU; Raw Data - Background (human PPARγ- LBD; 4 µM): 1.596 RLU; Raw Data (human PPARγ- LBD; 20 µM): 1.199 RLU; Raw Data - Background (human PPARγ- LBD; 20 µM): 1.025 RLU; Raw Data (human PPARγ- LBD; 100 µM): 0.421 RLU; Raw Data - Background (human PPARγ- LBD; 100 µM): 0.2685 RLU |
| C=CCc1ccc(OCC(=O)Nc2ccccc2Cl)c(OC)c1 [Compound 1f, 2-(4-Allyl-2-methoxyphenoxy)-N-(2-chlorophenyl)acetamide] | 5.15 µM | 1.795 RLU | 2.02 RLU | 1.801 RLU | 2.04 RLU | 7.74 ± 0.34% | 13.6 ± 0.23% | 24.4 ± 0.48% | 31 ± 0.55% | 43.08 ± 0.43% | 50% | 62.41 ± 0.42% | 15.17 ± 0.64% | 25.09 ± 0.66% | 41.88 ± 0.55% | 49.50 ± 0.46% | 58.61 ± 0.38% | 73.43 ± 0.36% | 85.79 ± 0.18% | 55 µM | Raw Data (human PPARγ- LBD; 0.00128 µM): 1.764 RLU; Raw Data - Background (human PPARγ- LBD; 0.00128 µM): 2 RLU; Raw Data (human PPARγ- LBD; 0.0064 µM): 1.826 RLU; Raw Data - Background (human PPARγ- LBD; 0.0064 µM): 2.061 RLU; Raw Data (human PPARγ- LBD; 0.032 µM): 1.766 RLU; Raw Data - Background (human PPARγ- LBD; 0.032 µM): 1.99 RLU; Raw Data (human PPARγ- LBD; 0.16 µM): 1.711 RLU; Raw Data - Background (human PPARγ- LBD; 0.16 µM): 1.945 RLU; Raw Data (human PPARγ- LBD; 0.8 µM): 1.881 RLU; Raw Data - Background (human PPARγ- LBD; 0.8 µM): 2.056 RLU; Raw Data (human PPARγ- LBD; 4 µM): 1.247 RLU; Raw Data - Background (human PPARγ- LBD; 4 µM): 1.542 RLU; Raw Data (human PPARγ- LBD; 20 µM): 0.799 RLU; Raw Data - Background (human PPARγ- LBD; 20 µM): 0.862 RLU; Raw Data (human PPARγ- LBD; 100 µM): 0.7757 RLU; Raw Data - Background (human PPARγ- LBD; 100 µM): 0.9427 RLU |
| O=C(O)Cc1ccccc1Nc1c(Cl)cccc1Cl [Standard Diclofenac, Diclofenac, reference compound] |  |  |  |  |  | 10.2 ± 0.55% | 15.3 ± 0.43% | 28.2 ± 0.61% | 38.93 ± 0.37% | 49.5 ± 0.51% | 60.29 ± 0.36% | 68.54 ± 0.43% | 15.99 ± 0.64% | 26.93 ± 0.55% | 43.54 ± 0.48% | 52.58 ± 0.48% | 62.30 ± 0.59% | 76.87 ± 0.64% | 90.77 ± 0.36% | 48.1 µM | HRBC membrane stabilization (percentage protection against HRBC lysis) ([1]; 400 µM, listed as diclofenac sodium): 90.77% and 90% |
